The record followed here is ChEMBL document CHEMBL1132079, “Combined NK1 and NK2 tachykinin receptor antagonists: synthesis and structure-activity relationships of novel oxazolidine analogues” (Bioorg Med Chem Lett, 1999).

Assay [1] has as its target T1, Substance-K receptor (Cavia porcellus) (UniProt Q64077).
T1 sequence (whole entry): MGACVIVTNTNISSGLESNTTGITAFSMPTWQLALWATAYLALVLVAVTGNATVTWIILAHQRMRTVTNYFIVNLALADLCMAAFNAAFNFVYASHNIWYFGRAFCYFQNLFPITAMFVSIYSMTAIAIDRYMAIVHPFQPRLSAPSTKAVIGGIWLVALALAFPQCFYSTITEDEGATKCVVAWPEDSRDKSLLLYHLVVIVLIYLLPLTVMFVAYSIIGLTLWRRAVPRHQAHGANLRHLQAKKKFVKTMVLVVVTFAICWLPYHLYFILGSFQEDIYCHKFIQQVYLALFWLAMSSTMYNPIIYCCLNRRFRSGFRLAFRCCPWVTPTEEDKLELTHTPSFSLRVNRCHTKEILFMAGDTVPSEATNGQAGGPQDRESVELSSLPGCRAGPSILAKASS
As to the kind of experiment: Antagonist activity against Neurokinin 2 (NK2) receptor from guinea pig ileum at a concentration of 1 ug/mL. Format: functional, tissue-based.

The target of assay [2] is Substance-P receptor (Cavia porcellus) (UniProt P30547). The assay can be described thus: Inhibitory activity against Neurokinin 1 (NK1) receptor from guinea pig lung at a concentration of 1 ug/mL.
Sequence of Substance-P receptor (Cavia porcellus) (P30547 whole entry): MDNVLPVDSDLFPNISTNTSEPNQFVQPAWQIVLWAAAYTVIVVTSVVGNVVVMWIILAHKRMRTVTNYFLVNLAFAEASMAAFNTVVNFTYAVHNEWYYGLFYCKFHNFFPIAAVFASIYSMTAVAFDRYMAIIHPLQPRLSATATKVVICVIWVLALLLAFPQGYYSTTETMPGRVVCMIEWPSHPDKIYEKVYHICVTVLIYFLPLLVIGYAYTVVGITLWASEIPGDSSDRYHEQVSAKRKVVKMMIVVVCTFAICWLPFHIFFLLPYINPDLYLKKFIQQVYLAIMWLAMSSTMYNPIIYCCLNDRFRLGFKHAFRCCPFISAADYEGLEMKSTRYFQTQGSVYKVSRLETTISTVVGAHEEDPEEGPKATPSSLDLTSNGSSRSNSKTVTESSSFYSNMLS
The target in another assay is T2, Substance-K receptor (Cavia porcellus, UniProt Q64077).
T2 sequence (Q64077 whole entry): T1 sequence (whole entry)
The assay can be described thus: Inhibitory activity against Neurokinin 2 (NK2) receptor from guinea pig ileum. Format: tissue-based.

In a further assay the target is Substance-P receptor (Cavia porcellus, UniProt P30547). The assay can be described thus: Inhibitory activity against Neurokinin 1 (NK1) receptor from guinea pig lung.
Sequence of Substance-P receptor (P30547 whole entry): as above

Calls of active or inactive are those of the source. The calls are words filed in the database; no cut-off is given here.

One may read the inhibition as the percentage by which the read-out fell short of the control. On to `COc1cc(OC)cc(C(=O)N2CO[C@](CCN3CCC(C(N)=O)(c4ccccc4)CC3)(c3ccc(Cl)c(Cl)c3)C2)c1`, for which the inhibition stood at 97% in assay [1] and 93% in assay [2].

With `COc1cc(C(=O)N2CO[C@](CCN3CCC(O)(c4ccccn4)CC3)(c3ccc(Cl)c(Cl)c3)C2)cc(OC)c1OC`, the inhibition was found to be 76% in assay [1] and 100% in assay [2].

For orientation: IC50 means the concentration that gives 50% inhibition. As for `COc1cc(C(=O)N2CO[C@](CCN3CCN(c4ccc(C(C)=O)cc4)CC3)(c3ccc(Cl)c(Cl)c3)C2)cc(OC)c1OC`, the values for the IC50 at Substance-K receptor and on Substance-P receptor were 115 nM and 28 nM, respectively.

Turning to `NC(=O)C1(c2ccccc2)CCN(CC[C@@]2(c3ccc(Cl)c(Cl)c3)CN(C(=O)c3cc4ccccc4[nH]3)CO2)CC1`, the inhibition in assay [1] stood at 26%; in assay [2] it was 96%.

Turning to `COc1cc(C(=O)N2CO[C@](CCN3CCC4(CC3)C[S+]([O-])c3ccccc34)(c3ccc(Cl)c(Cl)c3)C2)cc(OC)c1OC` (stereo partly drawn), the figures for the IC50 against Substance-K receptor and against Substance-P receptor were 11.1 nM and 8.94 nM, respectively.

Regarding `COc1cc(C(=O)N2CO[C@](CCN3CCC(C(N)=O)(c4ccccc4)CC3)(c3ccc(F)cc3)C2)cc(OC)c1OC`, the IC50 against Substance-K receptor is 744 nM; on Substance-P receptor, 45.6 nM.

Turning to `COc1cc(CC(=O)N2CO[C@](CCN3CCC(C(N)=O)(c4ccccc4)CC3)(c3ccc(Cl)c(Cl)c3)C2)cc(OC)c1OC`, the inhibition entry in assay [1] was “inactive”. The inhibition in assay [2] amounted to 87%.

For `Cc1cc(C)cc(C(=O)N2CO[C@](CCN3CCC(C(N)=O)(c4ccccc4)CC3)(c3ccc(Cl)c(Cl)c3)C2)c1`, the inhibition in assay [1] was determined as 90%; in assay [2], 100%.

For `COc1cc(C(=O)N2CO[C@](CCN3CCC(C(=O)Nc4ccccc4)CC3)(c3ccc(Cl)c(Cl)c3)C2)cc(OC)c1OC`, the results for the inhibition in assay [1] and in assay [2] were 72% and 44%, respectively.

On to `N#Cc1ccc(C(=O)N2CO[C@](CCN3CCC(C(N)=O)(c4ccccc4)CC3)(c3ccc(Cl)c(Cl)c3)C2)cc1`, for which the figures for the inhibition in assay [1] and in assay [2] were 79% and 29%, respectively.

For the compound `NC(=O)C1(c2ccccc2)CCN(CC[C@@]2(c3ccc(Cl)c(Cl)c3)CN(C(=O)c3cccnc3)CO2)CC1`, the inhibition was found to be 48% in assay [1] and 38% in assay [2].

Consider `CC(=O)Nc1ccc(C(=O)N2CO[C@](CCN3CCC(C(N)=O)(c4ccccc4)CC3)(c3ccc(Cl)c(Cl)c3)C2)cc1`, for which the inhibition in assay [1] was found to be 85%; in assay [2] it was 9%.

As to `COc1cc(C(=O)N2CO[C@](CCN3CCC(NC(=O)c4ccccc4)CC3)(c3ccc(Cl)c(Cl)c3)C2)cc(OC)c1OC`, the inhibition in assay [1] was 44%; in assay [2] it was 89%.

With `COc1ccc(S(=O)(=O)N2CO[C@](CCN3CCC(C(N)=O)(c4ccccc4)CC3)(c3ccc(Cl)c(Cl)c3)C2)cc1OC`, the inhibition in assay [1] worked out at 10%; in assay [2], 71%.

`NC(=O)C1(c2ccccc2)CCN(CC[C@@]2(c3ccc(Cl)c(Cl)c3)CN(C(=O)c3cc4ccccc4o3)CO2)CC1` registered an inhibition in assay [1] of 59%. For the same compound, the inhibition result in assay [2] is “inactive”.

Consider `NC(=O)C1(c2ccccc2)CCN(CC[C@@]2(c3ccc(Cl)c(Cl)c3)CN(C(=O)c3cnccn3)CO2)CC1`, for which the inhibition in assay [1] came to 47%; in assay [2] it was 23%.

For `COc1cc(C(=O)N2CO[C@](CCN3CCC(NC(C)=O)(c4ccccc4)CC3)(c3ccc(Cl)c(Cl)c3)C2)cc(OC)c1OC`, the inhibition was determined as 62% in assay [1] and 100% in assay [2].

Regarding `Cc1ccc(C(=O)N2CO[C@](CCN3CCC(C(N)=O)(c4ccccc4)CC3)(c3ccc(Cl)c(Cl)c3)C2)cc1`, the inhibition in assay [1] was determined as 88%; in assay [2] it was 56%.

For `COc1ccc(C(=O)N2CO[C@](CCN3CCC(C(N)=O)(c4ccccc4)CC3)(c3ccc(Cl)c(Cl)c3)C2)cc1OC`, the inhibition was found to be 88% in assay [1] and 93% in assay [2].

For `COc1cccc(OC)c1C(=O)N1CO[C@](CCN2CCC(C(N)=O)(c3ccccc3)CC2)(c2ccc(Cl)c(Cl)c2)C1`, the inhibition in assay [1] came out at 83%; in assay [2], 74%.

Regarding `COc1cc(C(=O)N2CO[C@](CCN3CCC4(CC3)CN(S(C)(=O)=O)c3ccccc34)(c3ccc(Cl)c(Cl)c3)C2)cc(OC)c1OC`, the inhibition in assay [1] came out at 91%; in assay [2] it was 98%.

Regarding `COc1cc(C(=O)N2CO[C@](CCN3CCC(O)(c4cccnc4)CC3)(c3ccc(Cl)c(Cl)c3)C2)cc(OC)c1OC`, the inhibition in assay [1] and in assay [2] was 100% each time.

For the compound `CC(C)Oc1cccc(CC(=O)N2CO[C@](CCN3CCC(C(N)=O)(c4ccccc4)CC3)(c3ccc(Cl)c(Cl)c3)C2)c1`, the inhibition was 18% in assay [1] and 59% in assay [2].

Take `COC(=O)c1ccc(C(=O)N2CO[C@](CCN3CCC(C(N)=O)(c4ccccc4)CC3)(c3ccc(Cl)c(Cl)c3)C2)cc1`: the results for the inhibition in assay [1] and in assay [2] were 85% and 36%, respectively.

Turning to `NC(=O)C1(c2ccccc2)CCN(CC[C@@]2(c3ccc(Cl)c(Cl)c3)CN(C(=O)c3ccccn3)CO2)CC1`, the figures for the inhibition in assay [1] and in assay [2] were 73% and 39%, respectively.

With `COc1cc(C(=O)N2CO[C@](CCN3CCC4(CC3)CN(Cc3ccccc3)C(=O)O4)(c3ccc(Cl)c(Cl)c3)C2)cc(OC)c1OC`, the inhibition in assay [1] amounted to 44%; in assay [2] it was 86%.

As to `COc1cc(C(=O)N2CO[C@](CCN3CCC(C(N)=O)(c4ccccn4)CC3)(c3ccc(Cl)c(Cl)c3)C2)cc(OC)c1OC`, the inhibition in assay [1] was determined as 83%; in assay [2] it was 95%.

In the case of `NC(=O)C1(c2ccccc2)CCN(CC[C@@]2(c3ccc(Cl)c(Cl)c3)CN(C(=O)c3ccncc3)CO2)CC1`, the inhibition is 57% in assay [1] and 65% in assay [2].

Regarding `COc1cccc(C(=O)N2CO[C@](CCN3CCC(C(N)=O)(c4ccccc4)CC3)(c3ccc(Cl)c(Cl)c3)C2)c1`, the results for the inhibition in assay [1] and in assay [2] were 82% and 100%, respectively.

Regarding `COc1cc(C(=O)N2CO[C@](CCN3CCC4(CC3)OCc3ccccc34)(c3ccc(Cl)c(Cl)c3)C2)cc(OC)c1OC`, the inhibition in assay [1] was 91%; in assay [2] it was 98%.

As for `COc1ccccc1C(=O)N1CO[C@](CCN2CCC(C(N)=O)(c3ccccc3)CC2)(c2ccc(Cl)c(Cl)c2)C1`, the inhibition in assay [1] amounted to 87%; in assay [2] it was 100%.

In the case of `COc1cc(C(=O)N2CO[C@](CCN3CCN(c4ccccn4)CC3)(c3ccc(Cl)c(Cl)c3)C2)cc(OC)c1OC`, the inhibition in assay [1] is 42%; in assay [2], 100%.

For the compound `COc1cc(C(=O)N2CO[C@](CCN3CCC4(CC3)SCc3ccccc34)(c3ccc(Cl)c(Cl)c3)C2)cc(OC)c1OC`, the inhibition in assay [1] is 89%; in assay [2], 100%.

As to `COc1ccc(C(=O)N2CO[C@](CCN3CCC(C(N)=O)(c4ccccc4)CC3)(c3ccc(Cl)c(Cl)c3)C2)c(OC)c1`, the inhibition is 85% in assay [1] and 78% in assay [2].

As for `COc1cc(C(=O)N2CO[C@](CCN3CCC4(CC3)C(=O)NCN4c3ccccc3)(c3ccc(Cl)c(Cl)c3)C2)cc(OC)c1OC`, half-maximal inhibition on Substance-P receptor (IC50) required 7.47 nM.

`NC(=O)C1(c2ccccc2)CCN(CC[C@@]2(c3ccc(Cl)c(Cl)c3)CN(C(=O)c3cccs3)CO2)CC1`: the values for the inhibition in assay [1] and in assay [2] were 83% and 33%, respectively.

For the compound `COc1cc(C(=O)N2CO[C@](CCN3CCC4(CC3)CN(c3ccccc3)C(=O)O4)(c3ccc(Cl)c(Cl)c3)C2)cc(OC)c1OC`, the inhibition in assay [1] came out at 12%; in assay [2], 86%.

On to `NC(=O)C1(c2ccccc2)CCN(CC[C@@]2(c3ccc(Cl)c(Cl)c3)CN(C(=O)c3cnc4ccccc4n3)CO2)CC1`, for which the inhibition in assay [1] was found to be 71%; in assay [2], 38%.

On to `COc1cc(C(=O)N2CO[C@](CCN3CCC(n4c(O)nc5ccccc54)CC3)(c3ccc(Cl)c(Cl)c3)C2)cc(OC)c1OC`, for which the results for the inhibition in assay [1] and in assay [2] were 85% and 100%, respectively.

For the compound `COc1cc(C(=O)N2CO[C@](CCN3CCC(C(C)=O)(c4ccccc4)CC3)(c3ccc(Cl)c(Cl)c3)C2)cc(OC)c1OC`, the results for the inhibition in assay [1] and in assay [2] were 57% and 83%, respectively.

`NC(=O)C1(c2ccccc2)CCN(CC[C@@]2(c3ccc(Cl)c(Cl)c3)CN(C(=O)c3ccc4ccccc4n3)CO2)CC1` displayed an inhibition in assay [1] of 71%. For the same compound, in assay [2], the inhibition entry is “inactive”.

Consider `NC(=O)C1(c2ccccc2)CCN(CC[C@@]2(c3ccc(Cl)c(Cl)c3)CN(C(=O)c3ccccc3)CO2)CC1`, for which the inhibition in assay [1] was determined as 87%; in assay [2], 75%.

As for `NC(=O)C1(c2ccccc2)CCN(CC[C@@]2(c3ccc(Cl)c(Cl)c3)CN(C(=O)c3ccc(Cl)cc3)CO2)CC1`, the inhibition turned out to be 88% in assay [1] and 50% in assay [2].

As to `COc1cc(C(=O)N2CO[C@](CCN3CCC(C(=O)c4ccc(Cl)cc4)CC3)(c3ccc(Cl)c(Cl)c3)C2)cc(OC)c1OC`, the inhibition in assay [1] stood at 54%; in assay [2] it was 97%.

Compound `COc1cc(C(=O)N2CO[C@](CCN3CCC(C(=O)NCc4ccccc4)CC3)(c3ccc(Cl)c(Cl)c3)C2)cc(OC)c1OC` displayed an inhibition in assay [1] of 64%. Further, on Substance-P receptor, half-maximal inhibition (IC50) required 92.9 nM.

Turning to `COc1cc(C(=O)N2CO[C@](CCN3CCC(O)(c4ccccc4)CC3)(c3ccc(Cl)c(Cl)c3)C2)cc(OC)c1OC`, the values for the inhibition in assay [1] and in assay [2] were 58% and 100%, respectively.

Take `COc1cc(C(=O)N2CO[C@](CCN3CCN(c4ncccn4)CC3)(c3ccc(Cl)c(Cl)c3)C2)cc(OC)c1OC`: the inhibition in assay [1] worked out at 48%; in assay [2], 100%.
